Assay results published in article PMC10932281, “A Combination of β-Aescin and Newly Synthesized Alkylamidobetaines as Modern Components Eradicating the Biofilms of Multidrug-Resistant Clinical Strains of Candida glabrata” (International Journal of Molecular Sciences, 2024).
Where two headings read alike, the source gives them in different places.

What was measured:
Krafft temperature (TK) = type: physicochemical
Experimental: CHNS elemental analysis was carried out by a Vario EL cube (Elementar, Germany) calibrated on acetanilide. Electrospray ionization mass spectroscopy (ESI-MS) (micrOTOF-Q instrument; Bruker Daltonics, Germany) allowed for the MS spectra to be obtained. The ESI-MS instrument was operated in the positive ion mode and calibrated with the Tunemix^TM mixture (Bruker Daltonics, Germany). The mass accuracy was better than 5 ppm. The obtained mass spectra were analyzed using DataAnalysis 3.4 software (Bruker Daltonics, Germany). ^1H NMR spectra were recorded on a Bruker AMX-500 spectrometer, using CDCl3 as a solvent. ^1H chemical shifts (in ppm) were calibrated to TMS as an internal reference. Melting points were determined using a Boetius melting point apparatus, while Krafft temperatures were determined according to the directions given in [47]. CMC is the minimum concentration above which micelles are formed in aqueous liquid. To obtain the CMC values, we used McGowan’s model. […] Molecular characteristic volumes (Vx) are found by the addition of the atomic characteristic volumes and the subtraction for the same factory (6.56 × 10^−6 m^3 mol^−1) for every covalent bond.

C. glabrata ATCC 90030 = assay: Interaction of AABs (3 µM) with antifungal agents, modified checkerboard; type: cell-based, Candida glabrata
C. glabrata DSM 1226 = test system: C. glabrata DSM 1226; design: method as in PMID 37508306; conditions: ref [12]; cited from earlier work
C. glabrata cells = test system: C. glabrata cells; design: method as in PMID 37508306; conditions: ref [12], cited from earlier work
C. glabrata 2586 = assay: Interaction of AABs (3 µM) with antifungal agents, modified checkerboard; type: cell-based, Candida glabrata
[1] = test system: C. glabrata clinical isolate C27; design: method as in PMID 37508306; conditions: ref [12]; cited from earlier work
ERG11 and ALS3 = test system: ERG11 and ALS3; design: method as in PMID 37508306; conditions: qRT-PCR; ref [12]; cited from earlier work
[2] = test system: C. glabrata clinical isolate C8 (C18); design: method as in PMID 37508306; conditions: ref [12]; cited from earlier work
C. glabrata 2853 = assay: Interaction of AABs (3 µM) with antifungal agents, modified checkerboard; type: cell-based, Candida glabrata
[3] = C9 at constant 3 µM, dilutions in µg/mL
[4] = C11 at constant 3 µM, dilutions in µg/mL
[5] = C13 at constant 3 µM, dilutions in µg/mL
[6] = C15 at constant 3 µM, dilutions in µg/mL

With `CCCCCCCCCC(=O)N(C)CCC[N+](C)(C)CC(=O)[O-]` [C9] the “TK (Krafft temperature)” value (Krafft temperature (TK)) was <0 °C.

For β-aescin, the “Multiplicity factor (MF) with C9” value (C. glabrata ATCC 90030; C9 3 µM, |MF| = MIC90 alone/MIC90 with AAB) was 1, the “MIC90 of antimycotic combined with C9” value (C. glabrata ATCC 90030; [3]) was 128 and the “Multiplicity factor (MF) with C11” value (C. glabrata ATCC 90030; C11 3 µM) was 1. For the same compound, the “MIC90 of antimycotic combined with C11” value (C. glabrata ATCC 90030; [4]) was 128, the “Multiplicity factor (MF) with C13” value (C. glabrata ATCC 90030; C13 3 µM) was 1 and the “MIC90 of antimycotic combined with C13” value (C. glabrata ATCC 90030; [5]) was 128. For the same compound, the “Multiplicity factor (MF) with C15” value (C. glabrata ATCC 90030; C15 3 µM) was 1, the “MIC90 of antimycotic combined with C15” value (C. glabrata ATCC 90030; [6]) was 128 and the MFC (C. glabrata DSM 1226) was 160 µg/mL. The MIC (C. glabrata DSM 1226) was 80 µg/mL, the “Increase versus control (FACS, membrane integrity)” value (C. glabrata cells; 1 × MIC) was “about 7.4%” and the “Increase versus control (FACS, membrane integrity)” value (C. glabrata cells; 2 × MIC) was ~22%. For the same compound, the “Multiplicity factor (MF) with C9” value (C. glabrata 2586; C9 3 µM) was 2, the “MIC90 of antimycotic combined with C9” value (C. glabrata 2586; [3]) was 128 and the “Multiplicity factor (MF) with C11” value (C. glabrata 2586; C11 3 µM) was 2. For the same compound, the “MIC90 of antimycotic combined with C11” value (C. glabrata 2586; [4]) was 128, the “Multiplicity factor (MF) with C13” value (C. glabrata 2586; C13 3 µM) was 2 and the “MIC90 of antimycotic combined with C13” value (C. glabrata 2586; [5]) was 128. The “Multiplicity factor (MF) with C15” value (C. glabrata 2586; C15 3 µM) was 2, the “MIC90 of antimycotic combined with C15” value (C. glabrata 2586; [6]) was 128 and the MFC [1] was 100 µg/mL. The MIC [1] was 50 µg/mL, the “Expression of ERG11 and ALS3” value (ERG11 and ALS3) was “downregulation” and the MFC [2] was 100 µg/mL. For the same compound, the MIC [2] was 40 µg/mL, the “Multiplicity factor (MF) with C9” value (C. glabrata 2853; C9 3 µM) was 1 and the “MIC90 of antimycotic combined with C9” value (C. glabrata 2853; [3]) was 128. The “Multiplicity factor (MF) with C11” value (C. glabrata 2853; C11 3 µM) was 1, the “MIC90 of antimycotic combined with C11” value (C. glabrata 2853; [4]) was 128 and the “Multiplicity factor (MF) with C13” value (C. glabrata 2853; C13 3 µM) was 1. For the same compound, the “MIC90 of antimycotic combined with C13” value (C. glabrata 2853; [5]) was 128, the “Multiplicity factor (MF) with C15” value (C. glabrata 2853; C15 3 µM) was 1 and the “MIC90 of antimycotic combined with C15” value (C. glabrata 2853; [6]) was 128.
